For the experiment, the system named is human dermal fibroblast neonatal. Briefly: Procollagen production (collagen synthesis promotion), ELISA kit. The experiment is classed as cell-based. The note with it: 1 and 5 μg/ml, 48 h, versus positive control NAG at the same concentration, FIG. 3. The procedure:
A human dermal fibroblast neonatal (Cascade Co.) was inoculated into a 24-well microplate (5×10^4 cells/well) by using a medium, in which Dulbeco's Modified Eagle's Medium (DMEM) was supplemented with 10% fetal bovine serum, thus being cultured under a condition of 37° C. and 5% CO2 for 24 hours. Then, the same was replaced with a serum-free DMEM medium and cultured for 24 hours, after which an appropriate amount of a sample fluid was treated so that a final concentration of each test compound could reach 1 μg/ml and 5 μg/ml. After being cultured for 48 hours, a cell culture fluid was collected and then an amount of procollagen was measured by using a collagen measurement kit of Takara Company (Takara Shuzo Co., Ltd.). First of all, the collected cell culture fluid was injected into a 96-well microplate, to which a primary collagen antibody was evenly applied, such that an antigen-antibody reaction could occur at 37° C. for three hours. The cell culture fluid was removed from the well and washed four times with PBS. A color causing material was injected into each well, after which a reaction took place at a room temperature for 15 minutes, such that 1 N sulfuric acid solution was added thereto, thus stopping the reaction. An optical density was measured at a wavelength of 450 nm by means of a spectrophotometer. […]

The structures appear in SMILES notation.

`CC(C)=CC1C[C@](O)([C@H]2CC[C@]3(C)[C@@H]2CC[C@@H]2[C@@]4(C=O)CC[C@H](O[C@@H]5OC[C@H](O)[C@H](O[C@@H]6OC[C@@H](O)[C@H](O)[C@H]6O)[C@H]5O[C@@H]5O[C@@H](C)[C@H](O)[C@@H](O)[C@H]5O)C(C)(C)[C@@H]4CC[C@]23C)[C@H](O)O1` (stereo partly drawn) [Gypenoside UL4, (23ξ)-3β,20β,21α-trihydroxy-19-oxo-21,23-epoxy-dammar-24-ene-3-O-[α-L-rhamnopyranosyl (1→2)][β-D-xylopyranosyl (1→3)]-α-L-arabinopyranoside]: the “procollagen-producing effect compared with NAG” value is listed as “the same or larger amount of procollagen”.

Regarding `CC(C)=CC1C[C@](O)([C@H]2CC[C@]3(C)[C@@H]2CC[C@@H]2[C@@]4(C=O)CC[C@H](O[C@@H]5OC[C@H](O)[C@H](O[C@@H]6O[C@H](CO)[C@@H](O)[C@H](O)[C@H]6O)[C@H]5O[C@@H]5O[C@@H](C)[C@H](O)[C@@H](O)[C@H]5O)C(C)(C)[C@@H]4CC[C@]23C)[C@H](O)O1` (stereo partly drawn) [Gypenoside UL5, (23ξ)-3β,20β,21α-trihydroxy-19-oxo-21,23-epoxy-dammar-24-ene-3-O-[α-L-rhamnopyranosyl (1→2)][β-D-glucopyranosyl (1→3)]-α-L-arabinopyranoside], the “procollagen-producing effect compared with NAG” value is recorded as “the same or larger amount of procollagen”.

Values taken from US11007136B2, “Cosmetic composition for wrinkle reduction containing gypenoside isolated from Gynostemma pentaphyllum” (CELLTRION INC., priority 2015, dated 2021).
